The results in this text go back to ChEMBL document CHEMBL1201862, “PubChem BioAssay data set” (2004).

Test systems include SK-MEL-2; SF-268; SF-539; Malme-3M; DU-145; Hs-578T; CCRF-CEM; UACC-62; ACHN; BT-549; HL-60; K562; NCI-H460; NCI-H226; UACC-257; HCT-116; MDA-N; SF-295; OVCAR-3.
Holding throughout (assay): inhibition of tumour cell growth, NCI panel, 48 h

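Step 1: Grow cells in 96-well plates. Step 2: Expose to compound for 48 hours at 5 concentrations. Step 3: Interpolate endpoints linearly; if unreached, use highest concentration. The concentration for 50% growth inhibition is given as GI50.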 Active and inactive are the calls of the source. Cut-off read from the data, not from the text of the source: active = GI50 up to about 1.1 µM and inactive = higher. Where only a bound is given, the exact number is not on record here.

As to `O=C(CSc1nc2ccc([N+](=O)[O-])cc2s1)c1ccc2ccccc2c1`, the GI50 is > 100 µM (inactive) in the assay with SK-MEL-2; > 100 µM (inactive) in the assay on SF-268; 62.2 µM (inactive) with SF-539; > 100 µM (inactive) in the assay on Malme-3M; > 100 µM (inactive) with DU-145; 89.5 µM (inactive) in the assay with Hs-578T. The GI50 in the assay on CCRF-CEM was 84.5 µM (inactive); in the assay on UACC-62 it was > 100 µM (inactive); in the assay with ACHN, > 100 µM (inactive); in the assay with BT-549, > 100 µM (inactive); in the assay with HL-60, > 100 µM (inactive); in the assay on K562, 84.9 µM (inactive). Besides, the GI50 with NCI-H460 is > 100 µM (inactive); in the assay with NCI-H226, > 100 µM (inactive); in the assay with UACC-257, > 100 µM (inactive); with HCT-116, > 100 µM (inactive); in the assay on MDA-N, > 100 µM (inactive); with SF-295, 93.1 µM (inactive). Besides, in the assay with OVCAR-3, the GI50 is > 100 µM (inactive).
Turning to `CC(C)(C)N(Cc1ccc2c(c1)OCO2)C(=O)/C=C\[S+]([O-])c1ccccc1` (stereo not drawn), the GI50 in the assay on SK-MEL-2 was 3.02 µM (inactive); with SF-268, 1.23 µM (inactive); in the assay with SF-539 it was 2.3 µM (inactive); in the assay on Malme-3M, 1.91 µM (inactive); in the assay with DU-145 it was 2.73 µM (inactive); in the assay on Hs-578T it was 2.33 µM (inactive). Besides, the GI50 in the assay with CCRF-CEM is 0.83 µM (active); in the assay with UACC-62, 3.37 µM (inactive); in the assay on ACHN, 3.97 µM (inactive); in the assay with BT-549, 2.43 µM (inactive); in the assay on HL-60, 2.11 µM (inactive); in the assay on K562, 2.9 µM (inactive). In addition, the GI50 is 4.19 µM (inactive) in the assay with NCI-H460; 2.74 µM (inactive) in the assay on NCI-H226; 3.48 µM (inactive) in the assay with UACC-257; 2.74 µM (inactive) in the assay on HCT-116; 2.4 µM (inactive) in the assay with MDA-N; 9.79 µM (inactive) in the assay on SF-295. In the assay on OVCAR-3, the GI50 was 1.99 µM (inactive).
Take `COc1cc(/C=C2\CCC(C)C3=C(c4cc(OC)c(OC)c(OC)c4)C(C#N)=C(N)OC32)cc(OC)c1OC` (stereo not drawn): the GI50 in the assay with SK-MEL-2 is 2.09 µM (inactive); with SF-268, 3.59 µM (inactive); in the assay on SF-539, 2.26 µM (inactive); in the assay with Malme-3M, 2.59 µM (inactive); with DU-145, 5.09 µM (inactive); with Hs-578T it was 2.1 µM (inactive). The GI50 in the assay on CCRF-CEM was 2.05 µM (inactive); in the assay on UACC-62, 2.45 µM (inactive); in the assay on ACHN, 3.89 µM (inactive); with BT-549, 5.97 µM (inactive); in the assay with HL-60 it was 1.67 µM (inactive); in the assay with K562, 2.85 µM (inactive). Further, the GI50 is 3.57 µM (inactive) in the assay with NCI-H460; 2.98 µM (inactive) in the assay with NCI-H226; 4.32 µM (inactive) with UACC-257; 2.2 µM (inactive) in the assay on HCT-116; 2.47 µM (inactive) in the assay on MDA-N; 3.65 µM (inactive) in the assay with SF-295. Moreover, in the assay on OVCAR-3, the GI50 is 4.1 µM (inactive).
Regarding `CN1CCN([C@H]2C[C@H]3[C@@H]4CC=C5C[C@@H](O)CC[C@]5(C)[C@H]4CC[C@]3(C)[C@H]2O)CC1`, the GI50 in the assay on SK-MEL-2 is > 83.9 µM (inactive); in the assay on SF-268 it was > 41.7 µM (inactive); with SF-539, 26.2 µM (inactive); with Malme-3M it was > 43.2 µM (inactive); in the assay with DU-145, > 100 µM (inactive); in the assay on Hs-578T, > 100 µM (inactive). Besides, the GI50 is 25 µM (inactive) in the assay with CCRF-CEM; > 44 µM (inactive) in the assay with UACC-62; > 100 µM (inactive) in the assay on ACHN; > 81.8 µM (inactive) with BT-549; 16.8 µM (inactive) in the assay with HL-60; 19 µM (inactive) in the assay with K562. Besides, the GI50 is > 42.7 µM (inactive) with NCI-H460; > 100 µM (inactive) in the assay on NCI-H226; > 49 µM (inactive) with UACC-257; 30.7 µM (inactive) in the assay with HCT-116; 19 µM (inactive) with MDA-N; > 78.3 µM (inactive) in the assay with SF-295. Also, the GI50 in the assay with OVCAR-3 was > 42.1 µM (inactive).
Take `Cc1ccc(NC(=O)/C=C/c2ccccc2)c(C)c1`: the GI50 in the assay with SK-MEL-2 is > 100 µM (inactive); in the assay with SF-268, 52 µM (inactive); in the assay on SF-539, > 100 µM (inactive); in the assay with Malme-3M, 86.9 µM (inactive); in the assay on DU-145, > 100 µM (inactive); in the assay on Hs-578T it was 21.7 µM (inactive). For the same compound, the GI50 with CCRF-CEM was > 100 µM (inactive); in the assay with UACC-62 it was > 100 µM (inactive); with ACHN it was 39.6 µM (inactive); in the assay on BT-549 it was > 100 µM (inactive); with HL-60, > 100 µM (inactive); in the assay on K562, > 100 µM (inactive). Besides, the GI50 in the assay with NCI-H460 is > 100 µM (inactive); in the assay on NCI-H226 it was 13.9 µM (inactive); with UACC-257 it was > 100 µM (inactive); in the assay with HCT-116 it was > 100 µM (inactive); with MDA-N, > 100 µM (inactive); with OVCAR-3 it was > 100 µM (inactive).
Take `COc1ccc2c(c1)C(OC)C1c3c(cc4c(c3-2)OCO4)CCN1C` (stereo not drawn): the GI50 in the assay with SK-MEL-2 was 2.73 µM (inactive); with SF-268, 4.63 µM (inactive); in the assay on SF-539, 2.54 µM (inactive); in the assay with Malme-3M, 2 µM (inactive); in the assay with DU-145, 5.41 µM (inactive); in the assay on Hs-578T, 1.96 µM (inactive). Moreover, the GI50 with CCRF-CEM is 2.24 µM (inactive); with UACC-62, 2.11 µM (inactive); with ACHN, 1.82 µM (inactive); in the assay with BT-549, 2.28 µM (inactive); in the assay on HL-60, 1.24 µM (inactive); in the assay on K562, 3.63 µM (inactive). The GI50 is 2.82 µM (inactive) with NCI-H460; 2.39 µM (inactive) in the assay on NCI-H226; 3.38 µM (inactive) in the assay with UACC-257; 2.1 µM (inactive) in the assay with HCT-116; 2.86 µM (inactive) in the assay on MDA-N; 2.38 µM (inactive) in the assay with SF-295. In the assay on OVCAR-3, the GI50 is 5.81 µM (inactive).
Turning to `Oc1ccc(O)c(CNc2ccccc2)c1`, the GI50 in the assay with SK-MEL-2 was 24.2 µM (inactive); in the assay on SF-268, 11.6 µM (inactive); in the assay on SF-539, 3.46 µM (inactive); with Malme-3M it was 14.2 µM (inactive); with DU-145 it was 12.3 µM (inactive); with Hs-578T it was 25.5 µM (inactive). The GI50 in the assay on CCRF-CEM is 2.37 µM (inactive); in the assay with UACC-62 it was 13.3 µM (inactive); with ACHN it was 10.5 µM (inactive); with BT-549, 7.93 µM (inactive); with HL-60, 2.67 µM (inactive); in the assay on K562, 1.65 µM (inactive). Also, the GI50 in the assay on NCI-H460 is 20.8 µM (inactive); with NCI-H226, 26.7 µM (inactive); with UACC-257 it was 16.9 µM (inactive); with HCT-116 it was 7.26 µM (inactive); in the assay on MDA-N, 3.85 µM (inactive); in the assay with SF-295, 12.1 µM (inactive). Further, the GI50 in the assay on OVCAR-3 was 4.62 µM (inactive).
As to `C=C(Cl)C(Cl)(CBr)CCC(Cl)C(C)C` (stereo not drawn), the GI50 in the assay with SK-MEL-2 is 0.619 µM (active); in the assay on SF-268, 1.72 µM (inactive); with SF-539, 1.3 µM (inactive); in the assay with Malme-3M, 8.28 µM (inactive); in the assay with DU-145 it was 1.37 µM (inactive); in the assay with Hs-578T it was 1.16 µM (inactive). Besides, the GI50 in the assay on CCRF-CEM was 26.9 µM (inactive); with UACC-62 it was 3.08 µM (inactive); in the assay on ACHN it was 2.92 µM (inactive); in the assay with BT-549, 14.3 µM (inactive); in the assay on HL-60, 0.226 µM (active); with K562, 30.8 µM (inactive). Further, the GI50 in the assay on NCI-H460 is 1.98 µM (inactive); in the assay on NCI-H226 it was 30 µM (inactive); in the assay on UACC-257, 1.37 µM (inactive); with HCT-116, 1.37 µM (inactive); with MDA-N, 3.72 µM (inactive); with SF-295 it was 2.22 µM (inactive). The GI50 in the assay with OVCAR-3 was 1.32 µM (inactive).
As to `N#Cc1c2c(c(N)oc1=O)C(c1ccccc1)CC(=O)N2` (stereo not drawn), the GI50 with SK-MEL-2, with SF-268, in the assay on SF-539, in the assay with Malme-3M, in the assay with DU-145 and in the assay with Hs-578T was > 100 µM (inactive) throughout. Further, the GI50 in the assay with CCRF-CEM, in the assay with UACC-62, with ACHN, in the assay on BT-549, in the assay with HL-60 and in the assay with K562 was > 100 µM (inactive) in each case. The GI50 with NCI-H460, in the assay with NCI-H226, in the assay on UACC-257, in the assay on HCT-116, with MDA-N and in the assay on SF-295 was > 100 µM (inactive) in each case. For the same compound, the GI50 in the assay with OVCAR-3 was > 100 µM (inactive).
Consider `c1ccc(C(=NNc2cnc3ccccc3n2)c2ccccn2)cc1`, for which the GI50 is 9.77 µM (inactive) with SK-MEL-2; 1.52 µM (inactive) in the assay on SF-268; 1.58 µM (inactive) in the assay on SF-539; 0.532 µM (active) in the assay with Malme-3M; 3.3 µM (inactive) in the assay with DU-145; 12 µM (inactive) in the assay with Hs-578T. Moreover, the GI50 with CCRF-CEM was 0.208 µM (active); in the assay with UACC-62, 3 µM (inactive); in the assay with ACHN it was 0.405 µM (active); in the assay on BT-549, 8.18 µM (inactive); in the assay with HL-60, 0.109 µM (active); with K562, 1.2 µM (inactive). For the same compound, the GI50 with NCI-H460 is 1.26 µM (inactive); with NCI-H226 it was 4.9 µM (inactive); with UACC-257 it was 0.418 µM (active); in the assay with HCT-116, 1.76 µM (inactive); with MDA-N, 9.64 µM (inactive); with SF-295 it was 2.93 µM (inactive). Moreover, in the assay with OVCAR-3, the GI50 was 0.608 µM (active).
Turning to `Br[Se]c1ccccn1`, the GI50 was 16.4 µM (inactive) with SK-MEL-2; 18.2 µM (inactive) in the assay with SF-268; 15.8 µM (inactive) in the assay on SF-539; 17.4 µM (inactive) with Malme-3M; 16.7 µM (inactive) in the assay on DU-145; 18.7 µM (inactive) in the assay on Hs-578T. The GI50 with CCRF-CEM is 27.6 µM (inactive); with UACC-62 it was 17.1 µM (inactive); in the assay with ACHN, 16.3 µM (inactive); in the assay on BT-549, 18.9 µM (inactive); in the assay with HL-60, 17.6 µM (inactive); with K562, 24.8 µM (inactive). The GI50 in the assay on NCI-H460 was 18.9 µM (inactive); in the assay with NCI-H226 it was 17.5 µM (inactive); in the assay with UACC-257, 17.8 µM (inactive); in the assay with HCT-116 it was 18.3 µM (inactive); in the assay with MDA-N, 17.7 µM (inactive); with SF-295, 4.5 µM (inactive). Besides, in the assay on OVCAR-3, the GI50 is 15.5 µM (inactive).
